“Also recorded” adds a separate entry of the source. No end group written: not given here.
Legend:
[1] = Enzymatic stability in murine plasma; format: in vitro ADME; details: 37°C, HPLC separation, MS analysis, percentage from peak areas; for Percentage intact peptide remaining (%) 4 h / remaining at 4 h: 4-h incubation; for remaining at 2 h / remaining at 4 h / remaining at 8 h: mouse; for remaining at 2 h: 2-h incubation, read-out: Percentage intact peptide remaining (%) 2 h; for remaining at 4 h: read-out: Percentage intact peptide remaining (%) 4 h; for remaining at 8 h / Percentage intact peptide remaining (%) 8 h: 8-h incubation; for remaining at 8 h: read-out: Percentage intact peptide remaining (%) 8 h
Description: When incubated together with murine plasma, Ac-NT/XN-8-Gln remained 100% intact up to and including 4 h, and over 90% peptide intact over an extended 8-h incubation period (Table 1).

BRIN-BD11 β-cells = assay: β-cell proliferation, Ki-67 immunostaining; format: cell-based; details: 18 h, 10^−8 and 10^−6 M, n=3–4, vs media control (Figure 2A)
Description: BRIN-BD11 β-cells were used to investigate effects of test peptides (10^−8 and 10^−6 M) on β-cell proliferation and protection against apoptosis. GLP-1 was employed as a positive control for all studies. Ki-67 immunostaining was used to assess effects on proliferation. Briefly, cells were seeded on to coverslips (40000 cells per coverslip) and cultured overnight (18 h; 37°C), in the presence of test peptides (10^−8 and 10^−6 M). Cells were then washed with PBS, and fixed using 4% paraformaldehyde. Following antigen retrieval with citrate buffer (90°C for 20 min), tissues were blocked using 1.1% BSA for 30 min. Cells were then incubated with Ki-67 primary antibody (1:500; Abcam, ab15580), followed by Alexa Fluor® 488 secondary antibody (1:400, Invitrogen, A-11008). Coverslips were washed with PBS, mounted on slides for viewing using a fluorescent microscope (Olympus System Microscope) and photographed by DP70 camera adapter system. Proliferation frequency was expressed as percentage of total cells analysed. For analysis of the ability of test peptides (10^−8 and 10^−6 M) to protect against apoptosis, cells were seeded as above, but apoptosis evoked through activation of caspase 3 and 7 activity by a luminogenic, tetrapeptide sequence DEVD Caspase-Glo® 3/7 substrate. Caspase induced cleavage of the substrate was then assessed by an ApoLive-Glow™ Multiplex assay kit, according to the protocol provided by the manufacturer (Promega, Wisconsin, U.S.A.).
(A) Proliferation was measured using Ki-67 immunocytochemistry. (B) Caspase-3/7 activation was detected by luminescence.

BRIN-BD11 cells = assay: In vitro insulin secretion from BRIN-BD11 cells (radioimmunoassay); format: cell-based; details: 20 min; for Effect on glucose-stimulated insulin secretion: 16.7 mM glucose, n=8 (Figure 1B); for Effect on GIP-induced insulin secretion: with 10^−7 M GIP, 5.6 mM glucose, n=8 (Figure 1C); for Effect on GLP-1 evoked insulin release: with 10^−7 M GLP-1, 5.6 mM glucose, n=8 (Figure 1D)
Description: The in vitro insulin secretory activity of test peptides was examined in BRIN-BD11 cells, cultured and maintained as previously described. For experimentation, BRIN-BD11 cells were seeded in 24-well plates at a cell density of 150000 cells/well, and allowed to attach overnight at 37°C. Following pre-incubation with Krebs–Ringer bicarbonate buffer (KRBB) (pH 7.4) supplemented with 0.5% (w/v) BSA and 1.1 mM glucose (40 min; 37°C), cells were then incubated with test peptides alone (10^−6–10^−12 M), or in combination with either GIP or GLP-1 (10^−7 M), at 5.6 or 16.7 mM glucose, as appropriate for 20 min. […] Aliquots of assay buffer (200 μl) were collected and stored at −20°C prior to assessment of insulin concentrations by an in-house radioimmunoassay. To confirm insulin secretory activity of Ac-NT/XN-8-Gln, pancreatic islets were isolated from lean C57BL/6 mice by collagenase digestion, as described previously and insulin secretion determined as outlined above (16.7 mM glucose), but over a 60-min test incubation period.
Figure 1 Acute effects of acetyl-neurotensin(8-13), xenin-8-Gln, Ac-NT/XN-8-Gln alone and in combination with GIP or GLP-1, on insulin release from BRIN-BD11 cells and isolated mouse islets BRIN-BD11 cells were incubated (20 min) with a range of concentrations (10^−12 to 10^−6 M) of acetyl-neurotensin(8-13), xenin-8-Gln or Ac-NT/XN-8-Gln alone (A,B) or in combination with GIP (C) or GLP-1 (D) in the presence of (A,C,D) 5.6 or (B) 16.7 mM glucose. (E) Murine islets were incubated (60 min) with Ac-NT/XN-8-Gln (10^−8 and 10^−6 M) in the presence 16.7 mM glucose. (A–E) Insulin release was measured using radioimmunoassay. Values represent means ± SEM (n=8 for (A–D) and n=5 for (E)). *P<0.05 and ***P<0.001 compared with respective glucose controls. ^∆P<0.05, ^∆∆P<0.01 and ^∆∆∆P<0.001 compared with respective 10^−7 M GIP or GLP-1 control.

isolated mouse islets = assay: Insulin secretion from isolated mouse islets; format: cell-based, C57BL/6 mice; details: 16.7 mM glucose, 60 min, peptide 10^−8 and 10^−6 M, n=5 (Figure 1E)
Description: The in vitro insulin secretory activity of test peptides was examined in BRIN-BD11 cells, cultured and maintained as previously described. For experimentation, BRIN-BD11 cells were seeded in 24-well plates at a cell density of 150000 cells/well, and allowed to attach overnight at 37°C. Following pre-incubation with Krebs–Ringer bicarbonate buffer (KRBB) (pH 7.4) supplemented with 0.5% (w/v) BSA and 1.1 mM glucose (40 min; 37°C), cells were then incubated with test peptides alone (10^−6–10^−12 M), or in combination with either GIP or GLP-1 (10^−7 M), at 5.6 or 16.7 mM glucose, as appropriate for 20 min. […] To confirm insulin secretory activity of Ac-NT/XN-8-Gln, pancreatic islets were isolated from lean C57BL/6 mice by collagenase digestion, as described previously and insulin secretion determined as outlined above (16.7 mM glucose), but over a 60-min test incubation period.
Figure 1 Acute effects of acetyl-neurotensin(8-13), xenin-8-Gln, Ac-NT/XN-8-Gln alone and in combination with GIP or GLP-1, on insulin release from BRIN-BD11 cells and isolated mouse islets BRIN-BD11 cells were incubated (20 min) with a range of concentrations (10^−12 to 10^−6 M) of acetyl-neurotensin(8-13), xenin-8-Gln or Ac-NT/XN-8-Gln alone (A,B) or in combination with GIP (C) or GLP-1 (D) in the presence of (A,C,D) 5.6 or (B) 16.7 mM glucose. […] (A–E) Insulin release was measured using radioimmunoassay. […]

| Molecule | Percentage intact peptide remaining (%) 4 h [1] | β-cell proliferation (Ki-67) (BRIN-BD11 β-cells) | remaining at 2 h [1] [%] | remaining at 4 h [1] [%] | remaining at 8 h [1] [%] | Effect on glucose-stimulated insulin secretion (BRIN-BD11 cells) | Effect on GIP-induced insulin secretion (BRIN-BD11 cells) | Effect on GLP-1 evoked insulin release (BRIN-BD11 cells) | Insulin release from isolated mouse islets (isolated mouse islets) | Percentage intact peptide remaining (%) 8 h [1] |
| --- | --- | --- | --- | --- | --- | --- | --- | --- | --- | --- |
| glucagon-like peptide-1 [Native GLP-1] | fully degraded |  |  |  |  |  |  |  |  |  |
| CC[C@H](C)[C@H](NC(=O)[C@H](Cc1ccc(O)cc1)NC(=O)[C@@H]1CCCN1C(=O)[C@H](CCCNC(=N)N)NC(=O)[C@H](CCCNC(=N)N)NC(C)=O)C(=O)N[C@@H](CC(C)C)C(=O)O [Acetyl-neurotensin(8-13)] |  | augmented | 98.2 | 94.4 | 89.6 | inhibited | no effect | inhibit |  |  |
| Ac-RRPYILHPQQPWIL [Ac-NT/XN-8-Gln] | 100% | augmented | 100 |  | 91.7 |  | augmented; also recorded: similar, but more prominent, bioactivity profile | perturb | Prominent (P<0.01) insulinotropic actions | over 90% |
| HPQQPWIL [Xenin-8-Gln] |  | devoid of benefits | 100 | 98.3 |  | retained significant insulinotropic actions | augmented | no impact |  | 94.1% |
